Among the data in article PMC6356164, “Identification of a novel lactose oxidase in Myrmecridium flexuosum NUK‐21” (FEBS Open Bio, 2019) are Km values, retold here.

This test has as its system T1, lactose oxidase (LOD).
T1 construct: native enzyme purified from wheat bran solid culture; 2 Zn per mole, no FAD or heme
Nature of the test: peroxidase-4-aminoantipyrine assay, Hanes-Woolf plot. In kind it is biochemical, Myrmecridium flexuosum. Conditions: 50 mM Tris-HCl pH 7.8, 30 °C, O2 as acceptor. The source says: peroxidase-4-aminoantipyrine assay, Hanes-Woolf plot on lactose oxidase (LOD)

Setting [1] is: substrate inhibition above 1 mM.

What is called Km is the concentration of substrate that gives half-maximal velocity. For the compound `OC[C@H]1O[C@H](O[C@H]2[C@H](O)[C@@H](O)C(O)O[C@@H]2CO)[C@H](O)[C@@H](O)[C@@H]1O` (stereo partly drawn) [Maltose], the Michaelis constant (Km) stood at 22000 µM.

As to `OC[C@H]1O[C@@H](O[C@H]2[C@H](O)[C@@H](O)C(O)O[C@@H]2CO)[C@H](O)[C@@H](O)[C@@H]1O` (stereo partly drawn) [Cellobiose], under setting [1], the Km came out at 63 µM.

Consider `OC[C@H]1O[C@@H](O[C@H]2[C@H](O)[C@@H](O)C(O)O[C@@H]2CO)[C@H](O)[C@@H](O)[C@H]1O` (stereo partly drawn) [Lactose], for which the Km under setting [1] came to 76 µM.
